Tests used:
Assay in all cases: relative viability (nuclei count vs DMSO), 5 days (fraction); higher = more cells survive
[1] = compound: C1CNCCC1C2=CC(=NN2)C3=CC=NC=C3
Summary of the method: (§1)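 Only plates meeting two conditions passed: control CV below 25% and at least one doubling. Lung cancer cell lines, kept overnight at 37 °C in 1536-well plates, were pinned with five library-drug doses (not always all listed) √10 apart on vehicle-anchored plates and grown 5 days without medium change. A one-step fix, permeabilisation and Hoechst stain preceded 4× imaging and MetaXpress nuclear counting. Viability equals treated-well nuclei divided by vehicle-well nuclei, as the median over plates.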

[2] = compound: C[C@@H](N)c1ccc(C(=O)Nc2ccnc3[nH]ccc23)cc1
Summary of the method: as §1

Tanzisertib = compound: O[C@H]1CC[C@H](Nc2ncc3nc(Nc4c(F)cc(F)cc4F)n([C@H]4CCOC4)c3n2)CC1 [Tanzisertib]
Summary of the method: as §1

[3] = compound: C[C@@H](N)c1ccc(C(=O)Nc2ccnc3[nH]ccc23)cc1 + C[C@@H](Oc1cc(-c2cnn(C3CCNCC3)c2)cnc1N)c1c(Cl)ccc(F)c1Cl [Crizotinib] (partner 1 µM)
Summary of the method: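 A single step with final 0.05% Triton X-100, 1% formaldehyde and 1 ug/ml Hoechst fixed the cells and stained nuclei 5 days after treatment. Lung cancer cell lines in 1536-well plates had been treated by pin tool the day after seeding with one drug alone or a fixed anchor-drug dose plus five library-drug doses (not always all listed) in √10 steps, and nuclei were counted on 4× images. Relative viability is the ratio of nuclei in treated wells to nuclei in vehicle wells, taken as the median of duplicate plates.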

Cell Line | relative viability ([1]; 0.08 µM) | relative viability ([1]; 0.8 µM) | relative viability ([1]; 2.53 µM) | relative viability ([1]; 8 µM) | relative viability ([2]; 0.04 µM) | relative viability ([2]; 0.1265 µM) | relative viability ([2]; 0.4 µM) | relative viability ([2]; 1.265 µM) | relative viability ([2]; 4 µM) | relative viability (Tanzisertib; 0.08 µM) | relative viability (Tanzisertib; 0.253 µM) | relative viability (Tanzisertib; 0.8 µM) | relative viability (Tanzisertib; 2.53 µM) | relative viability (Tanzisertib; 8 µM) | relative viability ([3]; first compound 0.04 µM) | relative viability ([3]; first compound 0.1265 µM) | relative viability ([3]; first compound 0.4 µM) | relative viability ([3]; first compound 1.265 µM) | relative viability ([3]; first compound 4 µM)
NCI-H1437 | 0.974 | 1.07 | 1 | 0.99 | 1.04 | 1.03 | 1.08 | 0.968 | 0.987 | 1 | 1.06 | 1.04 | 1.02 | 1.04 | 0.915 | 0.851 | 0.943 | 1.01 | 0.792
NCI-H1563 | 0.757 | 0.875 | 0.966 | 1.04 | 0.875 | 1.07 | 0.978 | 0.914 | 1.03 | 1.03 | 1.03 | 0.995 | 0.997 | 0.99 | 0.981 | 0.794 | 0.753 | 0.883 | 0.934
NCI-H1650 | 0.752 | 0.995 | 0.987 | 0.955 | 0.933 | 1.05 | 0.951 | 0.977 | 0.867 | 0.953 | 1 | 0.93 | 0.864 | 0.771 | 1.04 | 1.12 | 1.04 | 0.911 | 0.763
NCI-H1651 | 0.956 | 1.01 | 0.989 | 0.967 | 1.02 | 1 | 1.07 | 1.13 | 1.09 | 1.03 | 1.01 | 0.933 | 0.886 | 0.92 | 0.921 | 0.822 | 0.916 | 0.898 | 0.837
NCI-H1666 | 0.927 | 1.04 | 1.11 | 0.981 | 1.13 | 1.06 | 1.23 | 1.23 | 1.26 | 0.966 | 1.04 | 1.03 | 1.07 | 1.09 | 1.12 | 0.967 | 1.22 | 1.16 | 1.33
NCI-H1703 | 0.874 | 1.2 | 1.01 | 0.94 | 0.794 | 0.863 | 0.757 | – | 0.906 | 1.14 | 0.899 | 0.843 | 0.717 | 0.719 | 0.565 | 0.611 | 0.641 | 0.577 | 0.71
NCI-H1734 | 0.945 | 1.01 | 1.05 | 0.968 | 0.833 | 1.08 | 0.929 | 0.568 | 0.819 | 1.25 | 1.01 | 0.945 | 1.06 | 0.927 | 0.669 | 0.719 | 0.653 | – | 0.575
NCI-H1755 | 1.01 | 0.915 | 1.03 | 0.948 | 0.911 | 0.987 | 0.945 | 0.937 | 0.793 | 1.02 | 0.958 | 1 | 0.97 | 0.961 | 0.808 | 0.822 | 0.813 | 0.795 | 0.608
NCI-H1792 | 0.945 | 0.903 | 0.976 | 0.95 | 0.948 | 0.735 | 0.945 | 0.649 | 0.827 | 1.03 | 1.07 | 0.939 | 0.899 | 0.606 | 0.964 | 0.976 | 1.08 | 0.916 | 0.854
NCI-H1915 | 0.968 | 1.07 | 0.999 | 0.977 | 0.856 | 1.02 | 0.962 | – | 0.884 | 1.12 | 1.04 | 0.957 | 1.01 | 0.875 | 0.911 | 0.886 | 0.929 | – | 0.81
NCI-H1944 | 0.903 | 0.964 | 0.987 | 1.01 | 1.01 | 0.987 | 1.02 | 0.822 | 0.793 | 1.14 | 0.966 | 0.971 | 1 | 0.86 | 1.12 | 1.1 | 1.12 | – | 0.94
NCI-H1975 | 0.969 | 0.873 | 0.998 | 0.964 | 0.838 | 0.875 | 0.942 | 0.72 | 0.602 | 0.935 | 1.02 | 0.934 | 0.955 | 0.874 | 1.02 | 0.961 | 0.944 | 0.873 | 0.727
NCI-H1993 | 0.889 | 0.911 | 0.978 | 1.02 | 0.989 | 1.1 | – | 0.9 | 0.996 | 1.06 | 0.952 | 0.969 | 0.822 | 0.786 | 0.867 | 0.743 | – | 0.877 | 0.878
NCI-H2009 | 1.03 | 1.07 | 1.07 | 1 | 0.978 | 1.02 | 0.958 | 0.922 | 0.813 | 1.08 | 1.04 | 0.999 | 1.12 | 1.06 | 1.05 | 0.954 | 0.825 | 0.808 | 0.644

Source: the supplement of paper PMC10307832
